According to patent US20260132129A1 (Genesis Therapeutics, Inc., priority 2022, published 2026):

Biological target: T1, PI3Kα H1047R (T47D cells) (Homo sapiens, UniProt P42336, H1047R)
T1 construct: endogenous in cells; host or cells: T47D cells
Test: PI3Kα cellular assay: pAKT HTRF in T47D cells after EGF stimulation
Type: cell-based
Details: for IC50: T47D cells (PI3Kα H1047R), pAKT S473 HTRF
Method: SKBR3 or T47D cells are seeded in DMEM containing 10% FBS at 25k cells/well into 96-well cell culture format. Cells are incubated overnight at 37° C. in a 5% CO2 incubator and the following day cell media is aspirated, adherent cells are washed 1× with room temperature PBS prior to serum-free media application. Cells are returned to 37° C. 5% CO2 incubator and incubated a further 16 hrs. Compounds are added to serum starved adherent cells with a top dose of 10,000 nM and 3× multiple dose reductions for a minimum dose of 0.5 nM diluted in DMSO. Cell/compound incubation continues for 1 hr in a 37° C., 5% CO2 incubator prior to 10 minute PIK3CA stimulation with 20 ng/ml EGF. Cells treated with 0.1% DMSO and 20 ng/mL EGF are employed as negative control, cells treated with 10 uM Alpelisib and 20 ng/mL EGF are employed as a positive control. After 10 mins, plates are removed from incubator and cells are lysed with buffer and shaking 45 minutes. […] 384 well plate is left overnight at room temperature before reading HTRF on an Envision plate reader.
ND denotes value not determined with that assay for the specified compound; • for T47D (H1047R) selectivity over SKBR3 (WT): A denotes >20-fold; B denotes 20-fold≥value>5-fold; C denotes ≤5-fold. ND denotes value not determined with that assay for the specified compound; and • for T47D pAKT lipophilic efficiency (LiPE): A denotes >4; B denotes 4≥value>2; C denotes ≤2. ND denotes value not determined with that assay for the specified compound.

[1] = selectivity of T47D (H1047R) over SKBR3 (WT) pAKT IC50
[2] = selectivity T47D (H1047R) over SKBR3 (WT), pAKT HTRF
[3] = 1 hr compound, 20 ng/ml EGF 10 min

T1 sequence (P42336 whole entry H1047R): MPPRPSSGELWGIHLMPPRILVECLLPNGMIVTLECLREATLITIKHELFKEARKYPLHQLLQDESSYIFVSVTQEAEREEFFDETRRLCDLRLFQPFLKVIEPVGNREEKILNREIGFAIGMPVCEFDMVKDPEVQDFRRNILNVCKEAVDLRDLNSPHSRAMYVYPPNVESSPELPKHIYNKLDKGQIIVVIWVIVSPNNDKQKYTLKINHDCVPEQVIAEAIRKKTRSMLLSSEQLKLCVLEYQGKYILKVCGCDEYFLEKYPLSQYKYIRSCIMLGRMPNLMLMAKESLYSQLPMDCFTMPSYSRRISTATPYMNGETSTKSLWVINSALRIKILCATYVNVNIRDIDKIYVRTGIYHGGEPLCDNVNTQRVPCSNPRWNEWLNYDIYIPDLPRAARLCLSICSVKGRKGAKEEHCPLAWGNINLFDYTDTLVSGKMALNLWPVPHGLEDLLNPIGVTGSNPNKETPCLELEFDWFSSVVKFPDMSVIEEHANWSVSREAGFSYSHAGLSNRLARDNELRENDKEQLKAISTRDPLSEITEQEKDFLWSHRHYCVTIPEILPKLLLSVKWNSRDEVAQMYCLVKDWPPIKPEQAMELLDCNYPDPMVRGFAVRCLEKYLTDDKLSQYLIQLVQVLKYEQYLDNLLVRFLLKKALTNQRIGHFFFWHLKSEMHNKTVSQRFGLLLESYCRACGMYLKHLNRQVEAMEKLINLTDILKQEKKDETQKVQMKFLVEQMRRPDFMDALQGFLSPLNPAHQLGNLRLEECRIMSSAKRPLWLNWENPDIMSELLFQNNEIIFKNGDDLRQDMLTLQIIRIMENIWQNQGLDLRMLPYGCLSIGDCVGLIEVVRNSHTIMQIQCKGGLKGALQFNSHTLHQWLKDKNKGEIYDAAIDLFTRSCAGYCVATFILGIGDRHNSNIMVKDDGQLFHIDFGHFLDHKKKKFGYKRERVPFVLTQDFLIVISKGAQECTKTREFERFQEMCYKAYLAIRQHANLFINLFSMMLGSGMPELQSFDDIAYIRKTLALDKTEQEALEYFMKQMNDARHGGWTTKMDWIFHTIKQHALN
T1 sequence (P27986 whole entry partner): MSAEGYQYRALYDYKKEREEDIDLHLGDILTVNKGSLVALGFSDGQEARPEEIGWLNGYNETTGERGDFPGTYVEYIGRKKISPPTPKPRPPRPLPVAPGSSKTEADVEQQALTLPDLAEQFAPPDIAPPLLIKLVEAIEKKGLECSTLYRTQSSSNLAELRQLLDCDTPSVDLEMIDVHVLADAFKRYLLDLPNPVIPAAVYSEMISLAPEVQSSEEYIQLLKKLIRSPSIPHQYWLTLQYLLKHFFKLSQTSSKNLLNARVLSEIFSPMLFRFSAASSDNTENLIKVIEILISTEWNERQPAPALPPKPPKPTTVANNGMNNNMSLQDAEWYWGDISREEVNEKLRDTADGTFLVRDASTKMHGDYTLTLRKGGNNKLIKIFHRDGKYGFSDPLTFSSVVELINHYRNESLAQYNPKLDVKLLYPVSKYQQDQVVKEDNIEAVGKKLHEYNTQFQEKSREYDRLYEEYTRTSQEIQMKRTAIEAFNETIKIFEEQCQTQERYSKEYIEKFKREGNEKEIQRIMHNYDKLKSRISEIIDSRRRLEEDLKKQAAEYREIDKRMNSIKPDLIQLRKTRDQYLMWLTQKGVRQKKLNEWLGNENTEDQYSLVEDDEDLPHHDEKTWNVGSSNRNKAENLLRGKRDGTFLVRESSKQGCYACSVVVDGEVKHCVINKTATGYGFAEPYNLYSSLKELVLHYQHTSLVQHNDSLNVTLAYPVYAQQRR

| Structure (SMILES) | T47D pAKT S473 HTRF IC50 (H1047R): T47D (H1047R) selectivity over SKBR3 (WT) [1] | T47D pAKT S473 HTRF IC50 (H1047R): T47D (H1047R) selectivity over SKBR3 (WT) [2] | IC50 (EGF stimulation) [nM] | IC50 [3] [nM] |
| --- | --- | --- | --- | --- |
| Cc1cc([C@H](C)Nc2ccccc2C(=O)O)c2nc(-c3ccc4c(c3)c(C)cn4C3CCOCC3)c(C)c(=O)n2c1 [Compound 1009] | C (C denotes ≤5-fold) |  |  |  |
| COCC1=NC(C#N)C(NCc2ccc(-c3nc4c([C@H](C)Nc5ccccc5C(=O)O)cc(C)cn4c(=O)c3C)cc2F)O1 (stereo partly shown) [Compound 1271] |  | B (B denotes 20-fold≥value>5-fold) |  |  |
| Cc1cc(C(C)Nc2ccccc2C(=O)O)c2nc(-c3ccc(C4CCNCC4)nc3)c(C)c(=O)n2c1 (stereo not shown) [Compound 1302] |  | C (C denotes ≤5-fold) | > 2000 |  |
| CC(=O)N=S(C)(=O)c1ccccc1N[C@@H](C)c1cc(C)cn2c(=O)cc(N3CCOCC3)nc12 (stereo partly shown) [Compound 828] | B (B denotes 20-fold≥value>5-fold) |  | 500 to 2000 |  |
| Cc1cc(C(C)Nc2ccccc2C(=O)O)c2nc(-c3cnc4c(c3)c(C)nn4C3CC3)c(C)c(=O)n2c1 (stereo not shown) [Compound 1054] | B (B denotes 20-fold≥value>5-fold) |  |  |  |
| Cc1cc([C@H](C)Nc2ccccc2C(=O)O)c2nc(-c3ccc(-c4ccc5c(c4)CCO5)c(F)c3)c(C)c(=O)n2c1 [Compound 1269] |  | C (C denotes ≤5-fold) | > 2000 |  |
| Cc1cc(C(C)Nc2ccccc2C(N)=O)c2nc(-c3cnc(C)c(Cl)c3)c(C)c(=O)n2c1 (stereo not shown) [Compound 1094] |  | A (A denotes >20-fold) | 100 to 500 |  |
| Cc1cc(C(C)Nc2c(F)cccc2C(=O)O)c2nc(N3CCOCC3)cc(=O)n2c1 (stereo not shown) [Compound 290] |  | C (C denotes ≤5-fold) |  | > 2000 |
| Cc1cc([C@H](C)Nc2ccccc2C(=O)C(F)(F)F)c2nc(N3Cc4ccccc4C3)c(C)c(=O)n2c1 [Compound 958] | C (C denotes ≤5-fold) |  | > 2000 |  |
| Cc1cc(C(C)Nc2ccccc2C(=O)O)c2nc(-c3ccc(CC4CCN(C(=O)C5CC5)CC4)c(F)c3)c(C)c(=O)n2c1 (stereo not shown) [Compound 1313] |  | A (A denotes >20-fold) | 100 to 500 |  |
| Cc1cc(C(C)Nc2ccccc2C(=O)O)c2nc(-c3ccc4[nH]nc(C)c4c3)cc(=O)n2c1 (stereo not shown) [Compound 348] |  | A (A denotes >20-fold) |  |  |
| Cc1cc(C(C)Nc2ccccc2C(N)=O)c2nc(-c3cccnc3)c(C)c(=O)n2c1 (stereo not shown) [Compound 1152] |  | A (A denotes >20-fold) | 100 to 500 |  |
| Cc1cc(C(C)Nc2cc(F)ccc2C(=O)O)c2nc(-c3ccnc(C4CC4)c3)c(C)c(=O)n2c1 (stereo not shown) [Compound 1182] |  | A (A denotes >20-fold) | < 100 |  |
| Cc1cc([C@H](C)Nc2ccccc2-c2ccnnc2)c2nc(-c3ccc4c(C)cn(C)c4c3)c(C)c(=O)n2c1 [Compound 1134] |  | B (B denotes 20-fold≥value>5-fold) | 500 to 2000 |  |
| Cc1cc(C(C)Nc2ccccc2C(=O)O)c2nc(-c3ccc4c(c3)c(C#N)nn4C3CC3)c(C)c(=O)n2c1 (stereo not shown) [Compound 1026] | A (A denotes >20-fold) |  | 100 to 500 |  |
| Cc1cn2c(=O)c(C)c(-c3cccc(F)c3)nc2c(C(C)Nc2ccccc2C(=O)O)c1C (stereo not shown) [Compound 1348] |  | A (A denotes >20-fold) | < 100 |  |
| Cc1cc([C@@H](C)Nc2ccccc2C)c2nc(N3CCOCC3)cc(=O)n2c1 [Compound 248] |  | C (C denotes ≤5-fold) |  | < 100 |
| CCn1nc(N)c2c(C)c(-c3cc(=O)n4cc(C)cc([C@H](C)Nc5ccccc5C(=O)O)c4n3)ccc21 [Compound 723] | C (C denotes ≤5-fold) |  | > 2000 |  |
| Cc1cc(C(C)Nc2ccccc2C(=O)O)c2nc(N3CCN(CCC(N)=O)CC3)cc(=O)n2c1 (stereo not shown) [Compound 530] |  | C (C denotes ≤5-fold) |  | > 2000 |
| Cc1cc(C(C)Nc2ccccc2C(=O)O)c2nc(-c3ccc(F)cc3)c(C#N)c(=O)n2c1 (stereo not shown) [Compound 1260] |  | A (A denotes >20-fold) | < 100 |  |
| Cc1cc([C@H](C)Nc2ccccc2C(=O)O)c2nc(-c3cnc4c(c3)c(C)cn4C)c(C)c(=O)n2c1 [Compound 1053] | C (C denotes ≤5-fold) |  |  |  |

| Structure (SMILES) | T47D pAKT S473 HTRF IC50 (H1047R): T47D (H1047R) selectivity over SKBR3 (WT) [1] | T47D pAKT S473 HTRF IC50 (H1047R): T47D (H1047R) selectivity over SKBR3 (WT) [2] | IC50 (EGF stimulation) [nM] | IC50 [3] [nM] |
| --- | --- | --- | --- | --- |
| Cc1cc(C(C)Nc2ccccc2S(N)(=O)=O)c2nc(N3CCOCC3)cc(=O)n2c1 (stereo not shown) [Compound 151] |  | C (C denotes ≤5-fold) |  |  |
| Cc1cc(C(C)Nc2ccccc2-c2ccnnc2)c2nc(-c3ccc4c(C)nn(C5CC5)c4c3)c(C)c(=O)n2c1 (stereo not shown) [Compound 1127] |  | C (C denotes ≤5-fold) | > 2000 |  |
| Cc1cc([C@@H](C)Nc2ccccc2C(=O)O)c2nc(-c3ccc4c(c3)c(C#N)nn4C3CC3)c(C)c(=O)n2c1 [Compound 1048] | A (A denotes >20-fold) |  | 100 to 500 |  |
| Cc1cc([C@H](C)Nc2ccccc2C(=O)O)c2nc(-c3cnc4c(c3)c(C)c(C)n4C)c(C)c(=O)n2c1 [Compound 805] | C (C denotes ≤5-fold) |  | > 2000 |  |
| Cc1cc([C@@H](C)Nc2ccccc2C(=O)C(F)(F)F)c2nc(N(C)Cc3ccccc3)c(C)c(=O)n2c1 [Compound 957] | C (C denotes ≤5-fold) |  | > 2000 |  |
| Cc1cc([C@@H](C)Nc2ccccc2C(=O)O)c2nc(-c3ccc4[nH]c(=O)[nH]c4c3)cc(=O)n2c1 [Compound 499] |  | A (A denotes >20-fold) |  | 100 to 500 |
| Cc1cc(C(C)Nc2ccccc2C(=O)O)c2nc(-n3cnc4cc(O)ccc43)cc(=O)n2c1 (stereo not shown) [Compound 773] | B (B denotes 20-fold≥value>5-fold) |  | 500 to 2000 |  |
| Cc1cc([C@H](C)Nc2ccccc2S(N)(=O)=O)c2nc(-c3ccc4c(c3)c(C)nn4C3CC3)c(C)c(=O)n2c1 [Compound 962] | C (C denotes ≤5-fold) |  | > 2000 |  |
| CCc1c(-c2ccc(F)cc2)nc2c([C@H](C)Nc3ccccc3C(=O)O)cc(C)cn2c1=O [Compound 1116] |  | B (B denotes 20-fold≥value>5-fold) | 500 to 2000 |  |
| Cc1cc([C@@H](C)Nc2ccccc2C(=O)O)c2nc(N3Cc4ccccc4[C@@H]3C)cc(=O)n2c1 (single isomer, unassigned) [Compound 652] |  |  | < 100 |  |
| Cc1cc([C@H](C)Nc2ccccc2C(=O)O)c2nc(N3Cc4ccccc4C3)c(C#N)c(=O)n2c1 [Compound 1208] |  | A (A denotes >20-fold) | 100 to 500 |  |
| Cc1cc(C(C)Nc2ccccc2C#N)c2nc(-c3ccccc3)c(C)c(=O)n2c1 (stereo not shown) [Compound 1117] |  | B (B denotes 20-fold≥value>5-fold) |  |  |
| Cc1cc(C(C)Nc2ccccc2-c2ccnnc2)c2nc(N3CC(C)OC(C)C3)cc(=O)n2c1 (stereo not shown) [Compound 698] | C (C denotes ≤5-fold) |  |  |  |
| Cc1cc([C@@H](C)Nc2ccccc2C(=O)O)c2nc(-c3cc(C)c4[nH]c(=O)[nH]c4c3)cc(=O)n2c1 [Compound 497] |  | B (B denotes 20-fold≥value>5-fold) |  | 500 to 2000 |
| C=CC(=O)Nc1ccc(C(=O)O)c(N[C@H](C)c2cc(C)cn3c(=O)cc(N4CCOCC4)nc23)c1 [Compound 872] | C (C denotes ≤5-fold) |  | > 2000 |  |
| Cc1cc([C@H](C)Nc2ccccc2S(N)(=O)=O)c2nc([C@H]3CCCN(CC(F)F)C3)c(C)c(=O)n2c1 [Compound 1312] |  | A (A denotes >20-fold) | < 100 |  |
| Cc1cc([C@H](C)Nc2ccccc2C(=O)O)c2nc(-c3ccc4ccnn4c3)c(C)c(=O)n2c1 [Compound 1299] |  | C (C denotes ≤5-fold) | > 2000 |  |
| Cc1cc([C@@H](C)Nc2ccccc2)c2nc(N(C)Cc3ccccc3)c(C)c(=O)n2c1 [Compound 1163] |  | A (A denotes >20-fold) | 100 to 500 |  |
| Cc1cc(C(C)Nc2ccccc2C(=O)O)c2nc(-c3ccc4nc(NC(=O)C5CC5)nn4c3)cc(=O)n2c1 (stereo not shown) [Compound 519] |  | C (C denotes ≤5-fold) |  | > 2000 |
| Cc1cc(C(C)Nc2ccccc2C(=O)O)c2nc(-c3cc[nH]c(=O)c3)cc(=O)n2c1 (stereo not shown) [Compound 380] |  | C (C denotes ≤5-fold) |  | > 2000 |
